According to patent publication US4895973A, “Substituted glutaric acid lactones in the treatment of hyperlipidemia” (G. D. Searle & Company, priority 1988, dated 1990):

Molecular target: T1, rat liver microsomal HMGCoA reductase (Rattus norvegicus, UniProt P51639)
T1 construct: rat liver microsomal HMGCoA reductase; from tissue; host or cells: rat liver microsomes
T1 sequence (P51639 1-887): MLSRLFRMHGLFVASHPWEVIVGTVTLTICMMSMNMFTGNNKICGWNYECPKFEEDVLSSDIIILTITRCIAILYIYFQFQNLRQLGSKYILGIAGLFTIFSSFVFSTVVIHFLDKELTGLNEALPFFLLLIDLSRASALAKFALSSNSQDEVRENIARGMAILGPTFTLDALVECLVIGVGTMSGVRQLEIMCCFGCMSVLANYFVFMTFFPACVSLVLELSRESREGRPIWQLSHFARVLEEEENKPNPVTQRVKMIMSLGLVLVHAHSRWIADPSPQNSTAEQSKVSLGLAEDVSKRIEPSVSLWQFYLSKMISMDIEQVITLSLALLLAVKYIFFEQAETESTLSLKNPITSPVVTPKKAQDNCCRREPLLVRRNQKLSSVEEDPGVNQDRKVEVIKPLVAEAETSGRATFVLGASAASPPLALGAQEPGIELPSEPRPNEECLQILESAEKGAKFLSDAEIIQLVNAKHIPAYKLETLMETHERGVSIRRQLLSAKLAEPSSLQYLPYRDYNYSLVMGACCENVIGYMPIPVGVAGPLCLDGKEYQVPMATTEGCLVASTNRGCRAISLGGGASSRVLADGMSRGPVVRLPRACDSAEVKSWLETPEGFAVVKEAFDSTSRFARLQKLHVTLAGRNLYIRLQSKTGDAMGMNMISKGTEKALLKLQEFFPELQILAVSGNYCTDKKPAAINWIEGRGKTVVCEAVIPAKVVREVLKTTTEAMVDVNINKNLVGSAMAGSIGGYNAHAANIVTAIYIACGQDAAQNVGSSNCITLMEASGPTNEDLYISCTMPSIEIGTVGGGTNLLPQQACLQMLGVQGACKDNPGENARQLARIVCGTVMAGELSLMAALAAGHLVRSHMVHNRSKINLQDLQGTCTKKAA
Assay: in vitro inhibition of rat liver microsomal HMGCoA reductase
Format: biochemical
Settings: 40 μM 14C-HMGCoA, 15 min at 37° C., pH7.2
Procedure: The IC50 is defined as the concentration required to inhibit the enzyme by 50% of control.
Triplicate samples are preincubated for 15 min. at 37° C. in a volume of 1 ml. […] Mevalonic acid is extracted with ether and the % ^14 C-HMGCoA incorporation determined for concurrent control and test reaction systems. Testing is done (first) with a range finding assay followed by a 4 or 5 point assay to find the IC50 value.

For CC[C@H](C)C(=O)O[C@H]1CCC=C2C=C[C@H](C)[C@H](CC[C@@H]3C[C@@H](O)CC(=O)O3)[C@H]21 [Compactin], which IC50 is on record?
The IC50 was 1000 nM.
